What was measured:
barnyardgrass [1] = assay: Test A postemergence; format: in vivo, Echinochloa crusgalli; conditions: postemergence, 10 days; for Barnyardgrass plant response rating: 125 g ai/ha, 0 to 100 scale, 0 no effect, 100 complete control; for Plant response rating, Barnyardgrass: 500 g ai/ha, visual injury, 0 to 100 scale (0 no effect, 100 complete control)
Procedure, shortened: (§1)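 Visual injury ratings on a 0–100 scale (100 = complete control) versus untreated controls, taken 10 days after treatment in greenhouse. Preemergence: directed soil spray onto seeded loam/sand. Postemergence: foliar application at one- to two-leaf stage, plants 2–10 cm. Formulation: non-phytotoxic solvent plus surfactant.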

barnyardgrass [2] = assay: Test A preemergence; format: in vivo, Echinochloa crusgalli; conditions: visual injury after 10 days, 0 to 100 scale, 0 is no effect, 100 is complete control
Procedure, shortened: as §1

| Compound | Barnyardgrass plant response rating (barnyardgrass [1]) | Plant response rating, Barnyardgrass (barnyardgrass [1]) | Plant response rating, Barnyardgrass (barnyardgrass [2]; 125 g ai/ha) | Plant response rating, Barnyardgrass (barnyardgrass [2]; 500 g ai/ha) |
| --- | --- | --- | --- | --- |
| CC(C)c1ncn(-c2cc(C(=O)N3C[C@H](C)Oc4c(Cl)cccc43)c3ccccc3c2)n1 [Compound 146] | 20 | 20 | 20 | 70 |
| C[C@H]1CN(C(=S)c2cccc(-n3cncn3)c2)c2cccc(Cl)c2O1 [Compound 139, [(2S)-8-Chloro-2,3-dihydro-2-methyl-4H-1,4-benzoxazin-4-yl][3-(1H-1,2,4-triazol-1-yl)phenyl]methanethione] | 20 | 70 | 70 | 90 |
| CC(C)c1ncn(-c2cc3c(c(C(=O)N4C[C@H](C)Oc5c(Cl)cccc54)c2)OCC3)n1 [Compound 147] | 10 | 70 | 40 | 100 |
| CC(C)c1ncn(-c2cc(C(=O)N3C[C@H](C)Oc4c(Cl)cccc43)c3ccccc3c2)n1 [Compound 145] | 20 | 20 | 0 | 40 |
| Cc1cccc2c1O[C@@H](C)CN2C(=O)c1cccc(-n2cnc(C3COC3)n2)c1 [Compound 109, [(2S)-2,3-Dihydro-2,8-dimethyl-4H-1,4-benzoxazin-4-yl][3-[3-(3-oxetanyl)-1H-1,2,4-triazol-1-yl]phenyl]methanone] | 50 | 90 | 90 | – |

Source: patent publication US20260262643A1, “HERBICIDAL BENZOXAZINES” (FMC CORPORATION, priority 2022, published 2026)
